The values that follow come from patent US11273163B2, “Antiviral treatment” (priority 2020, dated 2022).

In this assay the test system is SARS-CoV-2 B.1.1.7. Kind of assay: microbe, parasite or virus in culture. In kind it is cell-based.

Take `CN1CCCC(n2nc(Cc3ccc(Cl)cc3)c3ccccc3c2=O)CC1` (stereo not shown) [Azelastine, 4-[(4-chlorophenyl)methyl]-2-(1-methylazepan-4-yl)phthalazin-1-one]: the inhibition of infection result is reported as “over 90%”.
